The subject of one test is U937 macrophages. The experiment in a line: TNFα in U937 macrophages stimulated with smooth LPS, with SP-A and PtdGro. The format is cell-based. The note with it: 100 ng/ml smooth LPS, 6 hours, SP-A 10 μg/ml, lipid 20 μg/ml. Here is the method:
U937 macrophages were stimulated with 100 ng/ml smooth LPS for 6 hours. The culture medium was harvested and assayed for the presence of TNFα by ELISA. Control cultures received no additions. SP-A was added as indicated at 10 μg/ml. Saturated-(16:0/16:0)-PtdGro was added at 20 μg/ml. Unsaturated-(18:1/18:1)-PtdGro was added at 20 μg/ml.

A further test addresses T1, PstB2 (Saccharomyces cerevisiae, UniProt P53844).
T1 construct: made in house; host or cells: baculovirus-insect cell expression system
Description: PstB2 control protein binding to solid phase POPG. Particulars: PstB2 1 μg/ml. On the set-up: species or system yeast. The text has this:
FIG. 16. MD-2 preferentially binds POPG.

The next test has as its target T2, TLR1 (Mus musculus, UniProt Q9EPQ1).
T2 construct: endogenous in cells; host or cells: RAW 264.7
The experiment in a line: TLR agonist TNFα production in RAW 264.7 cells, TLR1. Format: cell-based. The note with it: Pam3Cys, 24 h. Here is the method:
(§1) In this experiment, multiple TLRs were stimulated with defined TLR agonists for 24 h and the TNFα production was measured. In each case, the maximal stimulation by agonist is set at 100% and the antagonism by POPG is expressed as the relative % response. The Controls consist of no treatment, or treatment with POPG in the absence of agonist as indicated. The agonists for the TLRs consist of Pam3Cys for TLR1/2, Mycoplasma pneumoniae membranes as an agonist for TLR2, mycoplasma derived MALP2 as an agonist for TLR 2/6, double stranded RNA (poly IC) for TLR3, Gram-negative lipopolysaccharide for TLR4, and CpG rich DNA as an agonist for TLR9. The TLR4 panel also contains the antagonist polymyxin B (PB) for comparison with POPG.

For test [1], the target named is T3, TLR2 (Mus musculus, UniProt Q9QUN7).
T3 construct: endogenous in cells; host or cells: RAW 264.7
Description: TLR agonist TNFα production in RAW 264.7 cells, TLR2. Format: cell-based. The note with it: Mycoplasma pneumoniae membranes, 24 h. How it is done: as §1

The target in another test is T4, TLR3 (Mus musculus, UniProt Q99MB1).
T4 construct: endogenous in cells; host or cells: RAW 264.7
Description: TLR agonist TNFα production in RAW 264.7 cells, TLR3. Format: cell-based. The note with it: poly IC, 24 h. Here is the method: as §1

For test [2], the system named is TLR4. Description: TLR agonist TNFα production in RAW 264.7 cells, TLR4. Format: cell-based. Particulars: lipopolysaccharide, 24 h. Here is the method:
as §1

In test [3] the target is T5, TLR4 (Homo sapiens, UniProt O00206).
T5 construct: multiple Toll-like receptors (TLRs) on primary human neutrophils; endogenous in cells; host or cells: primary human neutrophils
Description: TLR agonist IL-8 production in primary human neutrophils, TLR4. The format is cell-based. Particulars: LPS, 5-24 h. Here is the method:
(§2) In this experiment, multiple TLRs were stimulated with defined TLR agonists for 5-24 h as indicated, and the IL-8 production was measured. In each case the maximal stimulation by agonist is set at 100% and the antagonism by POPG is expressed as the relative % response. The Controls consist of no treatment, or treatment with POPG, in the absence of agonist as indicated. The agonists for the TLRs consist of Pam3Cys for TLR1/2, double stranded RNA (poly IC) for TLR3, Gram-negative lipopolysaccharide (LPS) for TLR4, and single stranded RNA (polyU) for TLR7/8.

A further test has as its system TLR8. Description: TLR agonist IL-8 production in primary human neutrophils, TLR8. Format: cell-based. Particulars: polyU, 5-24 h. Here is the method:
as §2

The subject of another test is multiple TLRs. Description: Activation of primary bronchial epithelial cells by multiple TLRs (IL-8, Example 9). The format is cell-based, human. Particulars: 200 ug/ml POPG, 24 h. Here is the method: Monolayers of normal human bronchial epithelial cells were stimulated with the TLR3 agonist, polyI:C (0.1 ug/ml); the TLR5 agonist, flagellin (10 ng/ml) and the TLR7/8 agonist polyU (100 ug/ml) for 24 h in either the absence or presence of 200 ug/ml POPG, or POPC as indicated. Cultures were also treated with POPG or POPC alone, as additional controls. After 24 h the medium was harvested and centrifuged to remove non-adherent cells, and processed to detect IL-8 production by ELISA. Values shown in FIG. 33 are averages±SE for 3 independent experiments.

Test [4] concerns Respiratory Syncytial Virus (RSV). The experiment in a line: RSV-induced cytokine production in NHBE cells. The format is cell-based.
Test [5] has the same test system. The experiment in a line: RSV replication in NHBE cells (anti-RSV antibody staining). Format: cell-based. The note with it: multiplicity 3, 72 h, POPG 200 ug/ml. Here is the method: Monolayers of BEAS2B and NHBE cells were infected with RSV at a multiplicity of 3 for 72 h. Infections were performed on cells in either the absence or the presence of POPG (200 ug/ml). The cell monolayers were fixed and stained with goat anti-human RSV antibody conjugated with horseradish peroxidase. The presence of the antibody was detected with diaminobenzamidine. Controls consisted of cell layers not exposed to the virus or exposed to POPG in the absence of virus as indicated.

The next test relates to RSV. The experiment in a line: RSV binding to Hep2 cells (FACScan). Particulars: Hep2, multiplicity 50, 37 C 10 min, lipid 200 ug/ml. Format: cell-based, Respiratory Syncytial Virus (RSV). Here is the method:
Suspensions of 3×10^5 Hep2 cells were treated with RSV at a multiplicity of 50, at 37 C for 10 min, in either the absence of lipid, or the presence of 200 ug/ml POPG, or POPC, as indicated. The cells were next shifted to 0 C and washed 3 times with PBS. The cells were then incubated with monoclonal mouse anti-RSV antibody for 1 h at 0 C in PBS containing 5% BSA. The unbound antibody was removed by washing the cells 3 times with PBS, 5% BSA. Next, the cells were incubated with phycoerythrin conjugated rabbit anti-mouse antibody in PBS, 5% BSA for 2 h. Following this incubation the cells were washed 3 times with PBS and fixed overnight with 1% buffered formalin. The fixed cell preparation was washed 3 times with PBS and subjected to FACScan analysis as shown in the left panel of FIG. 38. The summary of the mean fluorescence intensity (MFI) for all conditions is shown in the right panel of FIG. 38.

The next test relates to influenza-A virus H3N2. Description: Influenza-A cytopathic effects and cell death in BEAS2B cells. Format: cell-based. Particulars: 72 h, 200 ug/ml POPG. In general terms: Cytopathic effects are the visible damage that an infection or toxin causes in cultured cells.
Test [6] has as its target TLR2 (Homo sapiens, UniProt O60603). The experiment in a line: TLR agonist IL-8 production in primary human neutrophils, TLR2. The format is cell-based. On the set-up: endogenous in cells; host or cells: primary human neutrophils. Particulars: Pam3Cys, 5-24 h. How it is done:
as §2

[7] abbreviates: RSV multiplicity 3, 48 h, lipid 200 ug/ml.

SMILES strings stand for the structures.

T1 sequence (P53844 whole entry): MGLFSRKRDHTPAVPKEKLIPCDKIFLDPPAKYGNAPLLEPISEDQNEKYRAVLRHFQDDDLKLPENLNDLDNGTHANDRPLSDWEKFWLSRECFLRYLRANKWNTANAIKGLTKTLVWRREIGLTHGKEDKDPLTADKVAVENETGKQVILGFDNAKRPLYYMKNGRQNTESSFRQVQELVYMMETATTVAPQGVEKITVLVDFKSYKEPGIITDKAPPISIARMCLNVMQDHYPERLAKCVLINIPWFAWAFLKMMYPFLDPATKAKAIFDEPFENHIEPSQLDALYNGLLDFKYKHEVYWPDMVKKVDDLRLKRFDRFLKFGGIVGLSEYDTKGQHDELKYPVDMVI
Chain of TLR2 (Homo sapiens, UniProt O60603) (O60603 21-784): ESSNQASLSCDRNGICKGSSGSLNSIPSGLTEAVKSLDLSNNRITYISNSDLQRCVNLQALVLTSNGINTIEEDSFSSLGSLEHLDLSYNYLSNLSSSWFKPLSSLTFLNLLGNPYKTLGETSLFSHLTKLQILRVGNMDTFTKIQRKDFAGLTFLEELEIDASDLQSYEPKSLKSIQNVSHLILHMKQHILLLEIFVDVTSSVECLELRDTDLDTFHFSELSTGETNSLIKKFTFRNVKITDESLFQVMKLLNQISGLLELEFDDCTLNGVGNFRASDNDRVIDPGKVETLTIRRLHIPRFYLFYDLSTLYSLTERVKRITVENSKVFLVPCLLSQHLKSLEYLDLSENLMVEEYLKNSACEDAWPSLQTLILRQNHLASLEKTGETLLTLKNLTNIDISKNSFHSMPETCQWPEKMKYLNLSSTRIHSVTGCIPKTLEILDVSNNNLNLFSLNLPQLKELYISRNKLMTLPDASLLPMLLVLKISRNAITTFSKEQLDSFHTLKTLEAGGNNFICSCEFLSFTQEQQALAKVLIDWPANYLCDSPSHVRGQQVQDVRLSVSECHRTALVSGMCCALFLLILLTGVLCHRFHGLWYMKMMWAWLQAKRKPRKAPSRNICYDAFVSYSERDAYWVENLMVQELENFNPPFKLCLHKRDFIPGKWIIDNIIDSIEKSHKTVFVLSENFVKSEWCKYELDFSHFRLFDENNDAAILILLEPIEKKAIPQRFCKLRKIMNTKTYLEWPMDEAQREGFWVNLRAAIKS
T4 sequence (Q99MB1 26-905): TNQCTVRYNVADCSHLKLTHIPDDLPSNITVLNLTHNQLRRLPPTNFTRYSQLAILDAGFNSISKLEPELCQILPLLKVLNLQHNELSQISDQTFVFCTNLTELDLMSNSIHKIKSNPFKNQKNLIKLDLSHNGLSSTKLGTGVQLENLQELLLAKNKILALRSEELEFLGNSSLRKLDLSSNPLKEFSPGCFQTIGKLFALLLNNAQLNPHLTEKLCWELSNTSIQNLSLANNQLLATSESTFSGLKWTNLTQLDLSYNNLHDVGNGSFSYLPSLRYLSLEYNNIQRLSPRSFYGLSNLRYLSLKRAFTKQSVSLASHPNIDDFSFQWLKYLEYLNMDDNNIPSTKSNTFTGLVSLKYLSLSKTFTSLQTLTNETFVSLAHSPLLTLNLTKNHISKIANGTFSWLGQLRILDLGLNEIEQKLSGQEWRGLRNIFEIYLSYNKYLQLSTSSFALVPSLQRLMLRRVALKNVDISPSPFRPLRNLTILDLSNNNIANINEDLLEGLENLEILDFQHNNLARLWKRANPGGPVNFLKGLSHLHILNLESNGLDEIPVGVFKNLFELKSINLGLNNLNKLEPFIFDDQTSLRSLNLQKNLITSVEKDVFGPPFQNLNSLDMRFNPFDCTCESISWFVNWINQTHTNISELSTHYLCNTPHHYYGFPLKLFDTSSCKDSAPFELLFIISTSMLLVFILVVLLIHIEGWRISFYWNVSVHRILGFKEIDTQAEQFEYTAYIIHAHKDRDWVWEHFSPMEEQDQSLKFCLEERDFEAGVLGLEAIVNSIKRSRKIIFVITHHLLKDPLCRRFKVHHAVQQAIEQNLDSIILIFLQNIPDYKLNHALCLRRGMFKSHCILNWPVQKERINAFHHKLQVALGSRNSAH
T2 sequence (Q9EPQ1 26-795): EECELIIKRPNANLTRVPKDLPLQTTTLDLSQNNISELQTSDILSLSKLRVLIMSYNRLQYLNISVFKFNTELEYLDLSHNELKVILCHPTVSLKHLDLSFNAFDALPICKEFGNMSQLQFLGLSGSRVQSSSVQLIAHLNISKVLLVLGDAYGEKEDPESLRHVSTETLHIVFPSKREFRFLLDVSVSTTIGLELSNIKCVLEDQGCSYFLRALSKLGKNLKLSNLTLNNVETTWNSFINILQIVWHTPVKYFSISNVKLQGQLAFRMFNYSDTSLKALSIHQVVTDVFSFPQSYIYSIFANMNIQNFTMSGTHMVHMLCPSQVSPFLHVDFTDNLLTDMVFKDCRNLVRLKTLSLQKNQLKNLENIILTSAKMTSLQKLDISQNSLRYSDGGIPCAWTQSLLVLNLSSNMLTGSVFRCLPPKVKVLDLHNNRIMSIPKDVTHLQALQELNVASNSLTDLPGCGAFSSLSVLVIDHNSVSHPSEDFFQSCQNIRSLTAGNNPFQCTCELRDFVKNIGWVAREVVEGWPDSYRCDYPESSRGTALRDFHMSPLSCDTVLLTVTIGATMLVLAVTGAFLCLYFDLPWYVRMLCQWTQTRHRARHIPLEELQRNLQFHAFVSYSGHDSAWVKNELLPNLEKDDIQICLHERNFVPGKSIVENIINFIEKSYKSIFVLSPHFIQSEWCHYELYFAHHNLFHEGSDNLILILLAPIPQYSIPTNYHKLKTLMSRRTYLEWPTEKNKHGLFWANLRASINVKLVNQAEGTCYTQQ
T5 sequence (O00206 24-839): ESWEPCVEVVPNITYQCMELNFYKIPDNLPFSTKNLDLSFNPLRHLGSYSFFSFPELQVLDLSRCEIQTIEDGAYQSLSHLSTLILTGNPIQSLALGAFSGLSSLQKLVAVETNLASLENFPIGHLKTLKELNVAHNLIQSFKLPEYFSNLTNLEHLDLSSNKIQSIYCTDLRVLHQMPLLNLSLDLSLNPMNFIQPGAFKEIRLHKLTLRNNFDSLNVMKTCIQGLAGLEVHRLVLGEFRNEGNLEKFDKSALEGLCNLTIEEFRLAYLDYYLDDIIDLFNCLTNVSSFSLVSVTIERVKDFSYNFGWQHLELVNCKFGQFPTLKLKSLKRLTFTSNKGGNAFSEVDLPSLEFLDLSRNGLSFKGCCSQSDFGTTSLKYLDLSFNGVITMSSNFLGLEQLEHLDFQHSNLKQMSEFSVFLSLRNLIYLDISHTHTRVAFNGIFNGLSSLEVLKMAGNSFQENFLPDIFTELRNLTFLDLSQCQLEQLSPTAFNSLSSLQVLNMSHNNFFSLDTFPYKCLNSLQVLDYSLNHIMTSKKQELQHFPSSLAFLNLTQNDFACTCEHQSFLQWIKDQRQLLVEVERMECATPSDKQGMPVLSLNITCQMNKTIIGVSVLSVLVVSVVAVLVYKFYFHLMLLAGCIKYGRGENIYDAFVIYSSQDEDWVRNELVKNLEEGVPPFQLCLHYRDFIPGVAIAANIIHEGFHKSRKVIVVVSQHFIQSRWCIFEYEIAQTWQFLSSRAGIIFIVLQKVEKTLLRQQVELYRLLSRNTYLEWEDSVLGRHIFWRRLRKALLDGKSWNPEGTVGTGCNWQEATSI
T5 sequence (Q9Y6Y9 19-160 partner): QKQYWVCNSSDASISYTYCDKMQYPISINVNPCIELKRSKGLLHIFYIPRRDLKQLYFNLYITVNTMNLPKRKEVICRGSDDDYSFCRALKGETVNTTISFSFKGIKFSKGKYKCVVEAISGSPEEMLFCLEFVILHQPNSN
T3 sequence (Q9QUN7 25-784): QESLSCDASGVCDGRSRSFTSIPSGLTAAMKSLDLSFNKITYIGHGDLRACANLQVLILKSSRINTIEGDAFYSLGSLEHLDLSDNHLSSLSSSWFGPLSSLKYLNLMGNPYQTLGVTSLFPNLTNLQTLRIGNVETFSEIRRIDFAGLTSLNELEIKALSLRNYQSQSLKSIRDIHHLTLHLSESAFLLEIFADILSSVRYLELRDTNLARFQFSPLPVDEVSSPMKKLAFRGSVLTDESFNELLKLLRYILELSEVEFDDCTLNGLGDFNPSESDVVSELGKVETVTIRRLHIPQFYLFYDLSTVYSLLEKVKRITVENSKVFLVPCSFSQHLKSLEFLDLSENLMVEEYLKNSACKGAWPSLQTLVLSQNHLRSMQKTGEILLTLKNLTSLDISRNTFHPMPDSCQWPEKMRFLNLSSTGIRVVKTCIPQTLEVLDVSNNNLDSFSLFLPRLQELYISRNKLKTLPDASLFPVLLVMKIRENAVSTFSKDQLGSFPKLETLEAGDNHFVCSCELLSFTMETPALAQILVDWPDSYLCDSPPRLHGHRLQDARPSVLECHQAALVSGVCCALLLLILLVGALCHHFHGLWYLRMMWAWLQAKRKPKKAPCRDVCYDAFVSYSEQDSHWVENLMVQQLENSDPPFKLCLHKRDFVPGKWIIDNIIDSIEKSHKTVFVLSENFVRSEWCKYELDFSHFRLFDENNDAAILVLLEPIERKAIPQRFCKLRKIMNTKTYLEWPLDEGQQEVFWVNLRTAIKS

On to `CCCCCCCCCCCCCCCC(=O)OCC(COP(=O)(O)OCC(O)CO)OC(=O)CCCCCCCCCCCCCCC` (stereo not shown) [DPPG, dipalmitoyl-phosphatidylglycerol, reference compound], for which the “blocking of the anti-inflammatory effects of SP-A (TNFα)” value in the test with U937 macrophages is recorded as “does not block”.

Consider `CCCCCCCC/C=C\CCCCCCCC(=O)O[C@H](COC(=O)CCCCCCCCCCCCCCC)COP(=O)(O)OCC(O)CO` (stereo partly shown) [POPG, palmitoyl-oleoyl-phosphatidylglycerol], for which the “binding to PstB2” value on PstB2 is given as “not”. Also, the “activity of TLR1 (TNFα production)” value at TLR1 is “inhibits”. Moreover, at TLR2 [1], the “activity of TLR2 (TNFα production)” value is reported as “inhibits”. Moreover, the “activity of TLR3 (TNFα production)” value at TLR3 is “inhibits”. In addition, the “activity of TLR4 (TNFα production)” value in the test on TLR4 [2] is on record as “inhibits”. Besides, the “activity of TLR4 (IL-8 production)” value on TLR4 [3] is reported as “inhibits”. Also, the “activity of TLR8 (IL-8 production)” value with TLR8 is listed as “inhibits”. Also, the “activation of primary bronchial epithelial cells by multiple TLRs (IL-8)” value with multiple TLRs is recorded as “inhibits activation”. Further, the “inflammatory cytokine production (IL-6, IL-8)” value in test [4] (RSV multiplicity 0.5-1, 48 h, 200 ug/ml) is given as “suppresses”. Also, in [4] (setting [7]), the IL-6 production result is on record as “inhibits” and the IL-8 production result is “inhibits”. For the same compound, the viral replication result in test [5] is on record as “prevents viral replication”. Further, the “binding of RSV to epithelial cells” value in the test with RSV is recorded as “blocks the binding”. For the same compound, the “cell death induced by influenza A infection” value with influenza-A virus H3N2 is recorded as “prevents cell death”. At TLR2 [6], the “activity of TLR2 (IL-8 production)” value is recorded as “inhibits”.

Values taken from patent publication US10532066B2, “Surfactant lipids, compositions thereof, and uses thereof” (National Jewish Health, priority 2007, dated 2020).
